Data published in patent US20250243174A1, “ANTITUMORAL COMPOUNDS” (PHARMA MAR, S.A., priority 2021, published 2025).

How the values were obtained:
[1] = MTMD (Maximum Tolerated Multiple Dose) determination; format: in vivo; details: iv, Q7dx3; female athymic nude mice
Description: Female Athymic Nude-Fox1 nu/nu mice (Envigo) were utilized for all experiments. Animals (N=10/cage) were housed in individually ventilated cages (Sealsafe Plus®, Techniplast S.P.A.), on a 12-hour light-dark cycle at 21-23° C. and 40-60% humidity. Mice were allowed free access to irradiated standard rodent diet (Tecklad 2914C) and sterilized water. Animals were acclimated for five days prior to being individually tattoo-identified. Animal protocols were reviewed and approved according to the regional Institutional Animal Care and Use Committees.
Mice were randomly allocated into experimental groups and intravenously administered, once for the MTD (Maximum Tolerated Dose) determination or one administration a week during three consecutive weeks, for the MTMD (Maximum Tolerated Multiple Dose) determination study. The animals were administered with white formulation or with compound dissolved in the experimental formulation at different concentrations. The volume administered was always 10 mL/kg. Once administered, animals were monitored for clinical signs of systemic toxicity, changes in body weight and mortality up to 14 days after the administration.

HCT-116 xenografts = assay: Example 7, colon xenograft model HCT-116; format: in vivo; details: for TV, median (IQR) / Median survival time: iv Q7dx3; for TV, median (IQR): high dose: PM060184 16, Comp. 2 2, Comp. 3 1 mg/kg; for mean time with tumor remission: high dose: compound 2 2.0, compound 3 1.0, PM060184 16 mg/kg; for animals in complete tumor remission: highest dose: compound 2 2.0, compound 3 1.0 mg/kg; for antitumor activity compared to PM060184-treated group at 16 mg/kg: once treatments were finalized (days 21 to 35), 2 at 2 mg/kg, 3 at 1 mg/kg; for mean body weight reduction: recorded on Day 9, compound 2 2.0 mg/kg, compound 3 1.0 mg/kg
Description: Female athymic nu/nu mice (Harlan Laboratories Models, S.L. Barcelona, Spain or Envigo, Spain) were utilized for all experiments. Animal were housed in individually ventilated cages Sealsafe® Plus, Techniplast S.P.A.), up to ten per cage on a 12-hour light-dark cycle at 21-23° C. and 40-60% humidity. Mice were allowed free access to irradiated standard rodent diet (Tecklad 2914C) and sterilized water. Animals were acclimated for at least 5 days prior to tumor implantation with a tumor cell suspension.
HCT116 cells were maintained in vitro at 37° C., 5% Co2 in McCoy's 5A Medium (Sigma Aldrich, Co.). Culture cells were passage every 3 to 5 days on reaching confluence. Each animal was subcutaneously implanted (on the right flank using 26G needle and a 1 cc syringe) at 4-6 weeks of age with 5×10^6 HCT116 cells suspended in 0.05 mL of a solution consisting of 50% Matrigel® (Corning Incorporated Life Sciences) and 50% medium without serum or antibiotics.
All treatments were intravenously administered on a weekly basis at their MTD, ¼ MTD and 1/16 MTD (high, medium and low dose).
Briefly: • 4 to 6 week-old athymic nu/nu female mice were subcutaneously implanted with tumor cells growing in culture. • When tumors reached a certain volume, tumor bearing animals (N=8-10/group) were randomly allocated into treatment groups. • Tumor dimensions and body weights were recorded 2-3 times per week starting from the first day of treatment (Day 0). Treatments producing >20% lethality and/or 20% net body weight loss were considered toxic. Tumor volume was calculated using the equation (a·b^2)/2, where a and b were the longest and shortest diameters, respectively. Animals were euthanized when their tumors reached ca. 2,000 mm^3 and/or severe necrosis was seen. • Median was calculated for tumor volume on each measurement day. • Antitumor effect was assessed comparing tumor volume data from groups following the 1st, 2nd, 3rd study weeks, or more depending on the case, using a two-tailed Mann-Whitney U test. The data are presented as medians and interquartile range (IQR). • Complete tumor regression (CR) was defined when tumor volume<63 mm^3 for 2 or more consecutive measurements. • Treatment tolerability was assessed by monitoring body weight evolution, clinical signs of systemic toxicity as well as evidences of local damage at the injection site.
PM060184 was provided in the form of freeze-dried vials of lyophilized product. Each vial was reconstituted with water for infusion to a concentration of 2.5 mg/mL.
Compounds 2 and 3 were provided in the powder form and were solubilized with hydroxy-propyl-β-cyclodextrin (HPβCD), reaching a concentration of 1 mg/ml or 0.2 mg/ml, respectively. Placebo was provided in the form of lyophilised cake containing 1.2 g of hydroxy-propyl-β-cyclodextrin (HPβCD) which was reconstituted with water for infusion.
In these experiments, compounds 2, 3 and PM060184, as well as placebo, were intravenously administered once per week for 3 consecutive weeks, on Days 0, 7 and 14, whenever it was possible.
The experiment was carried out as previously explained. When tumors reached ca. 195-205 mm^3, tumor bearing animals (N=10/group) were randomly allocated into the following treatment groups:
Treatments were initiated on Day 0.

[2] = high dose: PM060184 16.0, Comp. 2 2.0, Comp. 3 1.0 mg/kg, ud = group not reached mortality
[3] = low dose: PM060184 1.0, Comp. 2 0.125, Comp. 3 0.0625 mg/kg
[4] = medium dose: PM060184 4.0, Comp. 2 0.5, Comp. 3 0.25 mg/kg
[5] = medium-dose: compound 2 0.5, compound 3 0.25 mg/kg

Row | Compound | MTMD [1] | TV, median (IQR) (HCT-116 xenografts; Day 7) | TV, median (IQR) (HCT-116 xenografts; Day 14) | TV, median (IQR) (HCT-116 xenografts; Day 21) | TV, median (IQR) (HCT-116 xenografts; Day 28) | TV, median (IQR) (HCT-116 xenografts; Day 35) | Median survival time (HCT-116 xenografts; [2]) | mean time with tumor remission (HCT-116 xenografts) | animals in complete tumor remission (HCT-116 xenografts) | Median survival time (HCT-116 xenografts; [3]) | Median survival time (HCT-116 xenografts; [4]) | animals that reached a complete remission (n/10) (HCT-116 xenografts; [5]) | complete remission lasted a mean of (HCT-116 xenografts; [5]) | antitumor activity compared to PM060184-treated group at 16 mg/kg (HCT-116 xenografts) | mean body weight reduction (HCT-116 xenografts) | animals that reached a complete remission (n/10) (HCT-116 xenografts; high-dose: PM060184 16 mg/kg) | body weight decrease (HCT-116 xenografts; recorded on Day 2, PM060184 16 mg/kg)
1 | COC1=CC[C@@H]([C@@H](C)/C=C(C)/C=C\C=C/C(=O)N[C@H](C(=O)N/C=C\C[C@H](CC=C(C)C)OC(N)=O)C(C)(C)C)OC1=O [Compound 3] | 1.0 mg/kg | 121.6 (86.3-164.8) mm3 | 55.6 (16.2-82.3) mm3 | 32.0 (4.0-40.0) mm3 | 13.5 (4.0-13.5) mm3 | 13.5 (13.5-13.5) mm3 | ud | 23.7 days | 100% | 14 days | 49 days | 1/10 | 2 days | big difference, in terms of antitumor activity, statistically significant | ca. −16.2% | – | –
2 | COC1=CC[C@@H]([C@@H](C)/C=C(C)/C=C\C=C/C(=O)N[C@H](C(=O)N/C=C\C[C@H](C/C=C(\C)F)OC(N)=O)C(C)(C)C)OC1=O [Compound 2] | 2.0 mg/kg | 135.5 (114.1-154.5) mm3 | 57.2 (47.1-62.9) mm3 | 25.0 (13.5-34.0) mm3 | 13.5 (13.5-32.0) mm3 | 13.5 (13.5-13.5) mm3 | ud | 25.8 days | 100% | 19 days | 58 days | 4/10 | 9 days | big difference, in terms of antitumor activity, statistically significant | ca. −13.5% | – | –
3 | C/C=C\C[C@@H](C/C=C\NC(=O)[C@@H](NC(=O)\C=C/C=C\C(C)=C\[C@H](C)[C@@H]1CC=C(OC)C(=O)O1)C(C)(C)C)OC(N)=O [PM060184, reference compound] | 16.0 mg/kg | 140.5 (123.0-157.3) mm3 | 59.2 (50.7-84.2) mm3 | 63.8 (43.6-80.0) mm3 | 265.7 (195.2-284.3) mm3 | 650.2 (516.7-732.6) mm3 | 47 days | 5.8 days | – | 19 days | 43 days | – | – | – | – | 6/10 | ca. −3.2%
